Reference: US20210401768A1, “FORMULATIONS OF CANNABINOIDS FOR THE TREATMENT OF DERMATITIS AND INFLAMMATORY SKIN DISEASES” (Botanix Pharmaceuticals Ltd., priority 2017, published 2021)

Legend:
[1] = Discoloration of CBD solutions and formulations on standing; assay type: physicochemical; conditions: end of day
Excerpt: The CBD2 material dissolved like the CBD1 therefore the CBD2 is CBD without the discoloration properties of CBD1.

[2] = in ethanol, reported value; cited from earlier work
[3] = target: T1, human vanilloid receptor type 1 (VR1) (Homo sapiens, UniProt Q8NER1); conditions: HEK-hVR1 transfected cells; cited from earlier work
T1 construct: expressed in transfected cells; host or cells: HEK cells transfected with hVR1 (HEK-hVR1)
T1 sequence (Q8NER1 whole entry): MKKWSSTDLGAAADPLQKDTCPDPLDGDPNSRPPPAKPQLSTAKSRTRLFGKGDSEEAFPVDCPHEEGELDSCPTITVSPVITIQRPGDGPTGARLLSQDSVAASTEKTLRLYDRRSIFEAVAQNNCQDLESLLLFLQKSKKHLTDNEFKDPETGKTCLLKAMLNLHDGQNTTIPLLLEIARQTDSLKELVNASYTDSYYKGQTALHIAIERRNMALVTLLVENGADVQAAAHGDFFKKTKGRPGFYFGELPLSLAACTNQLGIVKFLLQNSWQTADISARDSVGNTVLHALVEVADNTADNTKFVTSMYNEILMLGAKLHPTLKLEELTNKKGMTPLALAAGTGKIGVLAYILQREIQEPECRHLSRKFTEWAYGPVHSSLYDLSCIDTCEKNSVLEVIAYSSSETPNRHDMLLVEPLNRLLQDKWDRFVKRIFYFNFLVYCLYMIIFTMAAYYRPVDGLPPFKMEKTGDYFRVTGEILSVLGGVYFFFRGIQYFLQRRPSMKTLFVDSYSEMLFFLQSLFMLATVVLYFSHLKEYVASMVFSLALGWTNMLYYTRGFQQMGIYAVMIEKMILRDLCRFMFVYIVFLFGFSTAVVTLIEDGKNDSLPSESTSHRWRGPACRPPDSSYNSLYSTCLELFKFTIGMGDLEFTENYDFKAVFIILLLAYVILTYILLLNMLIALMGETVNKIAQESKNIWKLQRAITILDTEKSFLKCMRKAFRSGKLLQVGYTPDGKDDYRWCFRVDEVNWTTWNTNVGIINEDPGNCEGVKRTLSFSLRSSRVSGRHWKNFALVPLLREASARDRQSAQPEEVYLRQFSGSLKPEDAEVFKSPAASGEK

[4] = system: ovalbumin-induced airway obstruction; conditions: 1 mg/kg i.v., sensitized guinea-pigs; cited from earlier work
[5] = Solubility of CBD in solvents (weight to weight); assay type: physicochemical
Protocol: First, the solubility of cannabidiol (CBD) was assessed. The powder looked granulated under the microscope. […] The conclusions from the solubility studies were that OA and IPA were very good solvents and it was surprising that IPA was so much better than ethanol.
Solubility studies: CBD dissolved at the 10% level in AE and barely 9.5% in IPM. Further exploration was not conducted due to the small amount of drug API available for non-GMP work. CBD is soluble greater than 10% but probably not in excess of 20%, as the time to dissolve additional CBD was taking considerably longer.

[6] = system: cardiac inflammation produced by doxorubicin; conditions: 5 mg/kg i.v. once daily for 4 weeks, rats; cited from earlier work
anandamide = conditions: rat basophilic leukemia cells; cited from earlier work
[7] = Solubility of CBD in the Franz cell Receptor Fluid; assay type: physicochemical; conditions: aqueous with cosolvent or surfactant or cyclodextrin; PBS, 0.01 wt % NaN3, 4 wt % hydroxypropyl-β-cyclodextrin, 1 wt % Brij O20

## C=C(C)[C@@H]1CCC(C)=C[C@H]1c1c(O)cc(CCCCC)cc1O [CBD1]
[1]
  discoloration of solution: colored by the end of the day

## C=C(C)[C@@H]1CCC(C)=C[C@H]1c1c(O)cc(CCCCC)cc1O [CBD2]
[1]
  discoloration of solution: None of the CBD2 solutions were colored at the end of day 1

## C=C(C)C1CCC(C)=CC1c1c(O)cc(CCCCC)cc1O (stereo not drawn) [CBD, 2-[3-methyl-6-(1-methylethenyl)-2-cyclohexen-1-yl]-5-pentyl-1,3-benzenediol]
[2]
  reported solubility of CBD: 3.5%
[3]
  stimulation of VR1: maximum effect similar in efficacy to that of capsaicin
[4]
  effect on ovalbumin-induced airway obstruction: attenuated ovalbumin-induced airway obstruction
[5]; in ethanol
  solubility (weight to weight) of CBD: 6-7%
[5]; in hexamethyldisiloxane (HDS)
  solubility (weight to weight) of CBD: 3-4%
[5]; in isopropyl alcohol (IPA)
  solubility (weight to weight) of CBD: greater than 14%
[5]; in isopropyl myristate (IPM)
  solubility of CBD: ~9.5%
[5]; in mineral oil
  solubility (weight to weight) of CBD: 3-4%
[5]; in oleyl alcohol (OA), did not go higher in studies
  solubility (weight to weight) of CBD: greater than 8%
[5]; in propylene glycol (PG)
  solubility (weight to weight) of CBD: 6-7%
[6]
  effect on cardiac inflammation produced by doxorubicin: attenuated cardiac inflammation
anandamide
  inhibition of anandamide: inhibit anandamide
[7]
  solubility: > 50 µg/mL
